# According to patent US20130123481A1, “MODIFIED NUCLEOSIDES, NUCLEOTIDES, AND NUCLEIC ACIDS, AND USES THEREOF” (MODERNA THERAPEUTICS, priority 2011, published 2013):
# How the values were obtained:
# [1] = tested on: peripheral blood mononuclear cells (PBMC); experiment: In Vitro Screening in PBMC - G-CSF protein expression; assay type: cell-based, human; details: 500 ng mRNA
# From the text: The supernatant was harvested and stored frozen until analyzed by ELISA to determine the G-CSF protein expression, and the induction of the cytokines interferon-alpha (IFN-α) and tumor necrosis factor alpha (TNF-α).
# [2] = tested on: human embryonic kidney 293 (HEK293) cells; experiment: Toxicity of Nucleoside Triphosphates (NTPs), CYTO TOX-GLO assay; assay type: cell-based; details: human
# Method: The cytotoxicity of natural and modified nucleoside triphosphates (NTPs) alone or in combination with other bases, was analyzed in human embryonic kidney 293 (HEK293) cells in the absence of transfection reagent. […] 10 ul of the NTPs outlined in Table 12 were combined with 10 ul of lipid dilution and incubated for 30 minutes to form a complex before 80 ul of the HEK293 cell suspension was added to the NTP complex. Natural and modified NTPs were transfected at a concentration of 2.1 nM, 21 nM, 210 nM, 2.1 um, 21 uM, 210 um or 2.1 mM. NTPs in combination were transfected at a total concentration of NTPs of 8.4 nM, 84 nM, 840 nM, 8.4 uM, 84 uM, 840 uM and 8.4 mM.
# [3] = PBMC Donor 1, 0.4 uL Lipofectamine 2000
Compound,"G-CSF Protein Expression [1, 3]",G-CSF Protein Expression ([1]; PBMC Donor 2),G-CSF Protein Expression ([1]; PBMC Donor 3),"percent of viable cells ([2]; 4 h, 2.1 nM)","percent of viable cells ([2]; 4 h, 21 nM)","percent of viable cells ([2]; 4 h, 210 nM)","percent of viable cells ([2]; 4 h, 2.1 uM)","percent of viable cells ([2]; 4 h, 21 uM)","percent of viable cells ([2]; 4 h, 210 uM)","percent of viable cells ([2]; 4 h, 2.1 mM)","percent of viable cells ([2]; 24 h, 2.1 nM)","percent of viable cells ([2]; 24 h, 21 nM)","percent of viable cells ([2]; 24 h, 210 nM)","percent of viable cells ([2]; 24 h, 2.1 uM)","percent of viable cells ([2]; 24 h, 21 uM)","percent of viable cells ([2]; 24 h, 210 uM)","percent of viable cells ([2]; 24 h, 2.1 mM)","percent of viable cells ([2]; 48 h, 2.1 nM)","percent of viable cells ([2]; 48 h, 21 nM)","percent of viable cells ([2]; 48 h, 210 nM)",other results
COC(=O)C=Cc1cn([C@@H]2O[C@H](CO)[C@@H](O)[C@H]2O)c(=O)[nH]c1=O [5-(2-carbomethoxyvinyl)uridine],77 pg/mL,286 pg/mL,177 pg/mL,–,–,–,–,–,–,–,–,–,–,–,–,–,–,–,–,–,–
Nc1cc[nH]c(=O)n1 [Cytosine],–,–,–,93.34%,93.11%,88.95%,90.49%,91.41%,89.88%,90.51%,85.78%,86.16%,86.12%,86.70%,85.72%,86.33%,86.92%,88.99%,88.95%,85.36%,"percent of viable cells ([2]; 48 h, 2.1 uM): 87.73%; percent of viable cells ([2]; 48 h, 21 uM): 87.28%; percent of viable cells ([2]; 48 h, 210 uM): 87.81%; percent of viable cells ([2]; 48 h, 2.1 mM): 94.23%; percent of viable cells ([2]; 72 h, 2.1 nM): 94.22%; percent of viable cells ([2]; 72 h, 21 nM): 91.80%; percent of viable cells ([2]; 72 h, 210 nM): 88.22%; percent of viable cells ([2]; 72 h, 2.1 uM): 88.93%; percent of viable cells ([2]; 72 h, 21 uM): 92.22%; percent of viable cells ([2]; 72 h, 210 uM): 92.34%; percent of viable cells ([2]; 72 h, 2.1 mM): 97.15%"
Nc1nc2nc[nH]c2c(=O)[nH]1 [Guanine],–,–,–,93.33%,92.84%,90.00%,90.60%,91.36%,90.14%,90.96%,85.41%,85.50%,86.35%,86.13%,85.93%,85.86%,86.37%,89.57%,87.92%,85.31%,"percent of viable cells ([2]; 48 h, 2.1 uM): 87.89%; percent of viable cells ([2]; 48 h, 21 uM): 88.18%; percent of viable cells ([2]; 48 h, 210 uM): 87.05%; percent of viable cells ([2]; 48 h, 2.1 mM): 93.83%; percent of viable cells ([2]; 72 h, 2.1 nM): 93.72%; percent of viable cells ([2]; 72 h, 21 nM): 92.55%; percent of viable cells ([2]; 72 h, 210 nM): 92.19%; percent of viable cells ([2]; 72 h, 2.1 uM): 92.30%; percent of viable cells ([2]; 72 h, 21 uM): 92.39%; percent of viable cells ([2]; 72 h, 210 uM): 91.41%; percent of viable cells ([2]; 72 h, 2.1 mM): 97.04%"
CNc1ncnc2c1ncn2[C@@H]1O[C@H](CO)[C@@H](O)[C@H]1O [N6-methyladenosine],100 pg/mL,168 pg/mL,200 pg/mL,–,–,–,–,–,–,–,–,–,–,–,–,–,–,–,–,–,–
Nc1nc(=O)n([C@@H]2O[C@H](CO)[C@@H](O)[C@H]2O)cc1C=O [5-formylcytidine],18 pg/mL,205 pg/mL,23 pg/mL,–,–,–,–,–,–,–,–,–,–,–,–,–,–,–,–,–,–
